According to patent US7214470B2, “Fluorine-containing ethylenic monomer having hydroxyl group or fluoroalkyl carbonyl group and fluorine-containing polymer prepared by polymerization of same” (priority 2001, dated 2007):

Test: Measurement of pKa by titration with NaOH solution in water/acetone
Type: physicochemical
Settings: for Measured pKa Exp. Ex. 2: monomer, titration with NaOH solution in water/acetone, room temperature
Protocol: In a solution of water/acetone of 10/15 ml was put 0.7865 g of CH2═CHCH2C(CF3)2OH, followed by stirring at room temperature. After it was confirmed that the solution became homogeneous, titration was carried out with a 0.2 mol/liter NaOH solution. A titration curve was obtained by adding a NaOH solution dropwise in increments of 0.15 ml and recording a pH value at every addition. An equivalence point was determined by an inflection point (maximum differential value of titration curve=dpH/dml) of the titration curve. In this case, the equivalence point was 14.5 ml. […] From a titration curve of water/acetone solution and aqueous solution which had been measured previously as a blank solution, a difference in a pH value derived from an electric potential difference between the solutions at titration of 7.25 ml was 1.29.
In case of titration of 1.0865 g of CH2═CHCH2C(CF3)2OH by the same procedures as above, an equivalence point was 20.15 ml and a half of equivalence point was 10.08 ml. A pH value at a half of the equivalence point was 10.78.
When the same procedures as above were carried out except that about 0.05 mol/liter NaOH solution was used as a titration solution, an equivalence point of 0.115 g of CH2═CHCH2C(CF3)2OH was 8.00 ml and a half of equivalence point was 4.00 ml. A pH value at this time was 10.92.
From those experiments carried out three times, a pKa value of CH2═CHCH2C(CF3)2OH was determined as 9.6.
With respect to the various fluorine-containing ethylenic monomers having OH group shown in Table 1, a pKa value was measured by the same procedures as above.

Row | Compound | pKa | Measured pKa Exp. Ex. 2 | pKa value (single titration) (0.115 g, about 0.05 mol/liter NaOH) | pKa value (single titration) (0.7865 g, 0.2 mol/liter NaOH, water/acetone 10/15 ml) | pKa value (single titration) (1.0865 g, 0.2 mol/liter NaOH)
1 | C=C(F)C(O)(C(F)(F)F)C(F)(F)F [Ex. 4, 1,1-bistrifluoromethyl-2-fluoro-2-propene-1-ol] | 8 | – | – | – | –
2 | OC(C(F)=C(F)F)(C(F)(F)F)C(F)(F)F [Prep. Ex. 1, 1,1-bistrifluoromethyl-2,3,3-trifluoro-2-propene-1-ol] | 7.1 | – | – | – | –
3 | C=C(F)C(F)(F)OC(F)(C(F)(F)F)C(F)(F)OC(F)(CO)C(F)(F)F (stereo not shown) [perfluoro-(1,1,1,9,9-tetrahydro-2,5-bistrifluoromethyl-3,6-dioxanonenol)] | – | 12.6 | – | – | –
4 | CH2═CHCH2C(CF3)2OH | – | 9.6 | 9.54 | 9.69 | 9.64
